In PubChem BioAssay AID330 (DTP/NCI, 2004):
Where “and” joins values, the source holds several entries; their conditions need not be identical. Equal values may be shown once. Toxic doses and inconclusive results are not listed.

System: P388 leukemia ip, CD2F1 mice, survival T/C
Assay: NCI In Vivo Anticancer Drug Screen. Data for tumor model P388 Leukemia (intraperitoneal) in CD2F1 (CDF1) mice
Details: endpoint: median survival time, higher = longer survival
Outline: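 Mice carrying the transplanted tumor received test compound or vehicle. Survival was recorded in each group, and the value is the treated-group measurement divided by that of the vehicle-treated control group.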

[1] = dose: 50.0 mg/kg/injection, schedule: Q01DX005 (ip), vehicle: saline with Tween-80
[2] = dose: 100.0 mg/kg/injection, schedule: Q01DX005 (ip), vehicle: saline with Tween-80
[3] = dose: 200.0 mg/kg/injection, schedule: Q01DX005 (ip), vehicle: saline with Tween-80
[4] = dose: 50.0 mg/kg/injection, schedule: Q01DX005 (ip), vehicle: Klucel (hydroxypropylcellulose) (HPC)
[5] = dose: 60.0 mg/kg/injection, schedule: Q01DX005 (ip), vehicle: saline with Tween-80
[6] = dose: 120.0 mg/kg/injection, schedule: Q01DX005 (ip), vehicle: saline with Tween-80
[7] = dose: 240.0 mg/kg/injection, schedule: Q01DX005 (ip), vehicle: saline with Tween-80
[8] = dose: 100.0 mg/kg/injection, schedule: Q01DX005 (ip), vehicle: Klucel (hydroxypropylcellulose) (HPC)
[9] = dose: 200.0 mg/kg/injection, schedule: Q01DX005 (ip), vehicle: Klucel (hydroxypropylcellulose) (HPC)

For `COc1ccc(/C(CC2(O)C(=O)Nc3c(C)cc(Cl)cc32)=N\NC(=O)C(=O)NN)cc1` (stereo unspecified), the T/C [1] was 106 % of control, the T/C [2] was 98 % of control and the T/C [3] was 96 % of control.
With `O=C(NNC(=O)c1ccccc1O)Nc1ccc(Cl)cc1C(F)(F)F` the T/C (dose: 50.0 mg/kg/injection, schedule: Q01DX009 (ip), vehicle: saline with Tween-80) was 103 % of control, the T/C (dose: 100.0 mg/kg/injection, schedule: Q01DX009 (ip), vehicle: saline with Tween-80) was 106 % of control and the T/C (dose: 200.0 mg/kg/injection, schedule: Q01DX009 (ip), vehicle: saline with Tween-80) was 100 % of control.
In the case of `O=C1c2ccccc2-c2ccc(N=Cc3c[nH]c4ccccc34)cc21`, the T/C (dose: 50.0 mg/kg/injection, schedule: Q01DX005 (ip), vehicle: saline + Tween-80 + alcohol) is reported as 104 % of control, the T/C (dose: 100.0 mg/kg/injection, schedule: Q01DX005 (ip), vehicle: saline + Tween-80 + alcohol) is reported as 98 % of control and the T/C (dose: 200.0 mg/kg/injection, schedule: Q01DX005 (ip), vehicle: saline + Tween-80 + alcohol) is reported as 98 % of control.
With `CCOC(=O)CC1Cc2ccc3ccc(O)cc3c2C1=O` (stereo unspecified) the T/C (dose: 12.5 mg/kg/injection, schedule: Q01DX009 (ip), vehicle: distilled water + Tween-80) was 94 % of control, the T/C (dose: 25.0 mg/kg/injection, schedule: Q01DX009 (ip), vehicle: distilled water + Tween-80) was 95 % of control and the T/C (dose: 50.0 mg/kg/injection, schedule: Q01DX009 (ip), vehicle: distilled water + Tween-80) was 92 % of control. The T/C (dose: 100.0 mg/kg/injection, schedule: Q01DX009 (ip), vehicle: distilled water + Tween-80) was 86 % of control and the T/C (dose: 200.0 mg/kg/injection, schedule: Q01DX009 (ip), vehicle: distilled water + Tween-80) was 92 % of control.
In the case of `COc1ccc2c(ccc3oc([N+](=O)[O-])cc32)c1`, the T/C [4] is reported as 116 % of control.
For `COc1cc2cc[n+]3cc4c(ccc5ccccc54)cc3c2cc1OC`, the T/C (dose: 6.25 mg/kg/injection, schedule: Q04DX003 (ip), vehicle: distilled water + Tween-80) was 166 % of control, the T/C (dose: 12.5 mg/kg/injection, schedule: Q04DX003 (ip), vehicle: distilled water + Tween-80) was 158 % of control and the T/C (dose: 12.5 mg/kg/injection, schedule: Q04DX003 (ip), vehicle: water) was 152 % of control. For the same molecule, the T/C (dose: 25.0 mg/kg/injection, schedule: Q04DX003 (ip), vehicle: distilled water + Tween-80) was 177 % of control.
With `C[S+]1C2(C3CC4CC(C3)CC2C4)C12C1CC3CC(C1)CC2C3` (stereo unspecified) the T/C (dose: 50.0 mg/kg/injection, schedule: Q01DX005 (ip), vehicle: distilled water + alcohol) was 104 % of control and the T/C (dose: 100.0 mg/kg/injection, schedule: Q01DX005 (ip), vehicle: distilled water + alcohol) was 109 % of control.
In the case of `C=C(C)C1CCC2(CO)C(O)CC3(C)C(CCC4C5(C)CCC(O)C(C)(C)C5CCC43C)C12` (stereo unspecified), the T/C (dose: 15.0 mg/kg/injection, schedule: Q01DX009 (ip), vehicle: Klucel (hydroxypropylcellulose) (HPC)) is reported as 93 % of control, the T/C (dose: 30.0 mg/kg/injection, schedule: Q01DX009 (ip), vehicle: Klucel (hydroxypropylcellulose) (HPC)) is reported as 94 % of control and the T/C (dose: 60.0 mg/kg/injection, schedule: Q01DX009 (ip), vehicle: Klucel (hydroxypropylcellulose) (HPC)) is reported as 86 % of control. The T/C (dose: 120.0 mg/kg/injection, schedule: Q01DX009 (ip), vehicle: Klucel (hydroxypropylcellulose) (HPC)) was 92 % of control.
`CC(=NC(C)(C)C)N1CCCCC1` was tested, and the T/C (dose: 25.0 mg/kg/injection, schedule: Q01DX009 (ip), vehicle: saline) was 106 % of control, the T/C (dose: 50.0 mg/kg/injection, schedule: Q01DX009 (ip), vehicle: saline) was 100 % of control and 90 % of control and the T/C (dose: 100.0 mg/kg/injection, schedule: Q01DX009 (ip), vehicle: saline) was 105 % of control.
With `CC(=O)NC(C)(C(C)=O)c1ccccc1` (stereo unspecified) the T/C (dose: 60.0 mg/kg/injection, schedule: Q01DX005 (ip), vehicle: saline) was 102 % of control, the T/C (dose: 120.0 mg/kg/injection, schedule: Q01DX005 (ip), vehicle: saline) was 107 % of control and the T/C (dose: 240.0 mg/kg/injection, schedule: Q01DX005 (ip), vehicle: saline) was 110 % of control.
In the case of `Cc1ccc(N2C(=O)C3CSCN3C2=O)cc1` (stereo unspecified), the T/C [5] is reported as 101 % of control, the T/C [6] is reported as 97 % of control and the T/C [7] is reported as 92 % of control.
In the case of `S=C1CC(N2CCCC2)=Nc2ccccc2N1`, the T/C [4] is reported as 100 % of control, the T/C [8] is reported as 90 % of control and the T/C [9] is reported as 95 % of control.
`COC(=O)/C=C1\C(=O)OC(C)(C)C1C` (stereo unspecified) was tested, and the T/C (dose: 50.0 mg/kg/injection, schedule: Q01DX009 (ip), vehicle: Klucel (hydroxypropylcellulose) (HPC)) was 96 % of control, the T/C (dose: 100.0 mg/kg/injection, schedule: Q01DX009 (ip), vehicle: Klucel (hydroxypropylcellulose) (HPC)) was 98 % of control and the T/C (dose: 200.0 mg/kg/injection, schedule: Q01DX009 (ip), vehicle: Klucel (hydroxypropylcellulose) (HPC)) was 103 % of control.
In the case of `COc1ccc2c(c1OC)C[N+]1([O-])CCc3cc4c(cc3C1C2)OCO4` (stereo unspecified), the T/C (dose: 0.63 mg/kg/injection, schedule: Q01DX009 (ip), vehicle: distilled water + Tween-80) is reported as 91 % of control, the T/C (dose: 1.25 mg/kg/injection, schedule: Q01DX009 (ip), vehicle: distilled water + Tween-80) is reported as 92 % of control and the T/C (dose: 2.5 mg/kg/injection, schedule: Q01DX009 (ip), vehicle: distilled water + Tween-80) is reported as 92 % of control. The T/C (dose: 5.0 mg/kg/injection, schedule: Q01DX009 (ip), vehicle: distilled water + Tween-80) was 90 % of control, the T/C (dose: 10.0 mg/kg/injection, schedule: Q01DX009 (ip), vehicle: distilled water + Tween-80) was 97 % of control and the T/C (dose: 20.0 mg/kg/injection, schedule: Q01DX009 (ip), vehicle: distilled water + Tween-80) was 106 % of control.
In the case of `CC(=O)c1oc2cc([N+](=O)[O-])c3ccccc3c2c1C`, the T/C [5] is reported as 107 % of control, the T/C [6] is reported as 98 % of control and the T/C [7] is reported as 88 % of control.
With `Cc1nc(Nc2ccccc2)c2c(C)c(Cc3ccccc3)[nH]c2n1` the T/C [4] was 89 % of control, the T/C [8] was 86 % of control and the T/C [9] was 87 % of control.
With `CC(C)NC(=O)c1ccc(CBr)cc1` the T/C (dose: 1.56 mg/kg/injection, schedule: Q01DX009 (ip), vehicle: other) was 95 % of control, the T/C (dose: 3.13 mg/kg/injection, schedule: Q01DX009 (ip), vehicle: other) was 95 % of control and the T/C (dose: 6.25 mg/kg/injection, schedule: Q01DX009 (ip), vehicle: other) was 98 % of control. For the same molecule, the T/C (dose: 12.5 mg/kg/injection, schedule: Q01DX009 (ip), vehicle: other) was 93 % of control, the T/C (dose: 25.0 mg/kg/injection, schedule: Q01DX009 (ip), vehicle: other) was 112 % of control and the T/C (dose: 50.0 mg/kg/injection, schedule: Q01DX009 (ip), vehicle: other) was 99 % of control.
`COC(=O)CC1(C(=O)OC)C(Sc2ccccc2)=C(c2ccccc2)N2CCCC21` (stereo unspecified) was tested, and the T/C (dose: 21.88 mg/kg/injection, schedule: Q01DX009 (ip), vehicle: Klucel (hydroxypropylcellulose) (HPC)) was 101 % of control, the T/C (dose: 43.75 mg/kg/injection, schedule: Q01DX009 (ip), vehicle: Klucel (hydroxypropylcellulose) (HPC)) was 96 % of control and the T/C (dose: 87.5 mg/kg/injection, schedule: Q01DX009 (ip), vehicle: Klucel (hydroxypropylcellulose) (HPC)) was 96 % of control. The T/C (dose: 175.0 mg/kg/injection, schedule: Q01DX009 (ip), vehicle: Klucel (hydroxypropylcellulose) (HPC)) was 92 % of control.
`CC(=O)CSCP(=O)(c1ccccc1)c1ccccc1` was tested, and the T/C [1] was 100 % of control, the T/C [2] was 99 % of control and the T/C [3] was 99 % of control.
In the case of `C/C=C\C1OC1(C)c1cc(=O)c2c(C)cc3c(c2o1)C(=O)c1c(O)c(C2CC(C)(N(C)C)C(OC(C)=O)C(C)O2)cc(C2CC(N(C)C)C(O)C(C)O2)c1C3=O` (stereo unspecified), the T/C (dose: 1.0 mg/kg/injection, schedule: Q01DX009 (ip), vehicle: saline + alcohol) is reported as 122 % of control, the T/C (dose: 1.0 mg/kg/injection, schedule: Q01DX010 (ip), vehicle: saline) is reported as 154 % of control and the T/C (dose: 2.0 mg/kg/injection, schedule: Q01DX010 (ip), vehicle: saline) is reported as 95 % of control.
`O=C(O)Cc1cn2ccccc2n1` was tested, and the T/C (dose: 100.0 mg/kg/injection, schedule: Q01DX001 (ip), vehicle: Klucel (hydroxypropylcellulose) (HPC)) was 96 % of control, the T/C (dose: 200.0 mg/kg/injection, schedule: Q01DX001 (ip), vehicle: Klucel (hydroxypropylcellulose) (HPC)) was 100 % of control and the T/C (dose: 400.0 mg/kg/injection, schedule: Q01DX001 (ip), vehicle: Klucel (hydroxypropylcellulose) (HPC)) was 93 % of control.
